Inconclusive results and toxic doses are left out. No stated cut-off is given here; in the data, active means T/C of 150% or more; inactive means T/C below 125%.
Test system: L1210 leukemia ip in BDF1 mice, survival T/C
Assay: NCI In Vivo Anticancer Drug Screen. Data for tumor model L1210 Leukemia (intraperitoneal) in B6D2F1 (BDF1) mice
Conditions: endpoint: mean survival time, higher = longer survival
Summary of the method: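 Transplantable tumor model; survival measured in treated vs vehicle control mice. Value = treated/control.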

[1] = dose: 100.0 mg/kg/injection, schedule: Q04DX002 (ip), vehicle: Klucel (hydroxypropylcellulose) (HPC)
[2] = dose: 200.0 mg/kg/injection, schedule: Q04DX002 (ip), vehicle: Klucel (hydroxypropylcellulose) (HPC)
[3] = dose: 100.0 mg/kg/injection, schedule: Q01DX009 (ip), vehicle: Klucel (hydroxypropylcellulose) (HPC)

Measured: T/C

Nc1ccc([N+](=O)[O-])c(-c2ccccc2)c1[N+](=O)[O-]
inactive: dose: 100.0 mg/kg/injection, schedule: Q01DX001 (ip), vehicle: carboxymethylcellulose (CMC) 91 % of control | dose: 200.0 mg/kg/injection, schedule: Q01DX001 (ip), vehicle: carboxymethylcellulose (CMC) 91 % of control | dose: 400.0 mg/kg/injection, schedule: Q01DX001 (ip), vehicle: carboxymethylcellulose (CMC) 91 % of control

CCN(CC)CCCN1C(=O)c2ccccc2S1(=O)=O
inactive: dose: 44.0 mg/kg/injection, schedule: Q01DX Z (ip), vehicle: saline 102 % of control | dose: 66.0 mg/kg/injection, schedule: Q01DX Z (ip), vehicle: saline 102 % of control | dose: 100.0 mg/kg/injection, schedule: Q01DX Z (ip), vehicle: saline 108 % of control

CCOC(=O)C(C)S(=O)(=O)/C(=C\N1CCCCC1)CC (centres undefined)
inactive: [1] 109 % of control | dose: 100.0 mg/kg/injection, schedule: Q04DX003 (ip), vehicle: other 104 % of control | [2] 98 % of control | dose: 200.0 mg/kg/injection, schedule: Q04DX003 (ip), vehicle: other 96 % of control | dose: 400.0 mg/kg/injection, schedule: Q04DX002 (ip), vehicle: Klucel (hydroxypropylcellulose) (HPC) 112 % of control | dose: 400.0 mg/kg/injection, schedule: Q04DX003 (ip), vehicle: other 102 % of control

CCSc1nc2ccccc2s1
inactive: dose: 100.0 mg/kg/injection, schedule: Q01DX001 (ip), vehicle: other 93 % of control | dose: 200.0 mg/kg/injection, schedule: Q01DX001 (ip), vehicle: other 98 % of control

O=C(Nc1cccc(F)c1)Nc1ccc([N+](=O)[O-])cc1Cl
inactive: [3] 101 % of control | dose: 200.0 mg/kg/injection, schedule: Q01DX009 (ip), vehicle: Klucel (hydroxypropylcellulose) (HPC) 100 % of control | dose: 400.0 mg/kg/injection, schedule: Q01DX009 (ip), vehicle: Klucel (hydroxypropylcellulose) (HPC) 103 % of control

Cc1cc(Cl)c2c(Cl)ccc(Cl)c2n1
inactive: dose: 100.0 mg/kg/injection, schedule: Q01DX001 (ip), vehicle: saline 98 % of control | dose: 200.0 mg/kg/injection, schedule: Q01DX001 (ip), vehicle: saline 96 % of control | dose: 400.0 mg/kg/injection, schedule: Q01DX001 (ip), vehicle: saline 98 % of control

C=C1N(S(=O)(=O)c2ccc(C)cc2)C(=O)OC12CCCCC2
inactive: dose: 100.0 mg/kg/injection, schedule: Q01DX009 (ip), vehicle: saline with Tween-80 95 % of control | dose: 200.0 mg/kg/injection, schedule: Q01DX009 (ip), vehicle: saline with Tween-80 103 % of control | dose: 400.0 mg/kg/injection, schedule: Q01DX009 (ip), vehicle: saline with Tween-80 105 % of control

CCCCCCCCCCCCNC(=O)C[n+]1cccc(C(N)=O)c1
inactive: dose: 100.0 mg/kg/injection, schedule: Q04DX003 (ip), vehicle: saline 96 % of control

[Br][Sb]([Br])([c]1ccccc1)([c]1ccccc1)[c]1ccccc1
inactive: dose: 50.0 mg/kg/injection, schedule: Q01DX009 (ip), vehicle: Klucel (hydroxypropylcellulose) (HPC) 91 % of control | [3] 97 % of control | [1] 90 % of control | [2] 87 % of control

CCCCCCCC[Si](Br)(CCCCCCCC)CCCCCCCC
inactive: dose: 75.0 mg/kg/injection, schedule: Q01DX001 (ip), vehicle: acetone 98 % of control | dose: 150.0 mg/kg/injection, schedule: Q01DX001 (ip), vehicle: acetone 93 % of control | dose: 300.0 mg/kg/injection, schedule: Q01DX001 (ip), vehicle: acetone 96 % of control

NC(N)=N/N=C/c1cccc2ccccc12
inactive: dose: 3.8 mg/kg/injection, schedule: Q01DX Z (ip), vehicle: other 102 % of control | dose: 6.25 mg/kg/injection, schedule: Q01DX009 (ip), vehicle: saline 95 % of control | dose: 6.25 mg/kg/injection, schedule: Q04DX003 (ip), vehicle: Klucel (hydroxypropylcellulose) (HPC) 104 % of control | dose: 7.5 mg/kg/injection, schedule: Q01DX Z (ip), vehicle: other 97 % of control | dose: 12.5 mg/kg/injection, schedule: Q01DX009 (ip), vehicle: saline 98 % of control | dose: 12.5 mg/kg/injection, schedule: Q04DX003 (ip), vehicle: Klucel (hydroxypropylcellulose) (HPC) 100 % of control | dose: 15.0 mg/kg/injection, schedule: Q01DX Z (ip), vehicle: other 105 % of control | dose: 25.0 mg/kg/injection, schedule: Q01DX009 (ip), vehicle: saline 88 % of control | dose: 25.0 mg/kg/injection, schedule: Q04DX003 (ip), vehicle: Klucel (hydroxypropylcellulose) (HPC) 104 % of control | dose: 30.0 mg/kg/injection, schedule: Q01DX Z (ip), vehicle: other 94 % of control

O=C(/C=C/c1ccc2c(c1)OCO2)c1ccc([N+](=O)[O-])cc1
inactive: dose: 100.0 mg/kg/injection, schedule: Q04DX003 (ip), vehicle: alcohol 93 % of control | dose: 200.0 mg/kg/injection, schedule: Q04DX003 (ip), vehicle: alcohol 90 % of control | dose: 400.0 mg/kg/injection, schedule: Q04DX003 (ip), vehicle: alcohol 93 % of control

Reference: PubChem BioAssay AID248 (DTP/NCI, 2004)
